The values that follow come from US10385024B2, “Compounds and methods for inhibiting NHE-mediated antiport in the treatment of disorders associated with fluid retention or salt overload and gastrointestinal tract disorders” (Ardelyx, Inc., priority 2012, dated 2019).

The target in experiment [1] is T1, Rat NHE-3 (Rattus norvegicus, UniProt P26433).
T1 construct: expressed in transfected cells; host or cells: Opossum kidney (OK) cells (ATCC), transfected by electroporation
The experiment in a line: Cell-based assay of NHE-3 activity (rat NHE-3 prompt inhibition). The settings on record: OK cells with rat NHE-3 gene, compound present during pH recovery; for IC50: read-out: Rat NHE3 pIC50 (prompt) (converted). The protocol: (§1) Rat or human NHE-3-mediated Na^+-dependent H^+ antiport was measured using a modification of the pH sensitive dye method originally reported by Paradiso (Proc. Natl. Acad. Sci. USA. (1984) 81(23): 7436-7440). Opossum kidney (OK) cells were obtained from the ATCC and propagated per their instructions. The rat NHE-3 gene (GenBank M85300) or the human NHE-3 gene (GenBank NM_004174.1) was introduced into OK cells via electroporation, and cells were seeded into 96 well plates and grown overnight. Medium was aspirated from the wells, cells were washed twice with NaCl-HEPES buffer (100 mM NaCl, 50 mM HEPES, 10 mM glucose, 5 mM KCl, 2 mM CaCl2, 1 mM MgCl2, pH 7.4), then incubated for 30 min at room temperature with NH4Cl-HEPES buffer (20 mM NH4Cl, 80 mM NaCl, 50 mM HEPES, 5 mM KCl, 2 mM CaCl2, 1 mM MgCl2, pH 7.4) containing 5 μM bis(acetoxymethyl) 3,3′-(3′,6′-bis(acetoxymethoxy)-5-((acetoxymethoxy)carbonyl)-3-oxo-3H-spiro[isobenzofuran-1,9′-xanthene]-2′,7′-diyl)dipropanoate (BCECF-AM). Cells were washed twice with Ammonium free, Na^+-free HEPES (100 mM choline, 50 mM HEPES, 10 mM glucose, 5 mM KCl, 2 mM CaCl2, 1 mM MgCl2, pH 7.4) and incubated in the same buffer for 10 minutes at room temperature to lower intracellular pH. […] Initial rates were plotted as the average 2 or more replicates, and pIC50 values were estimated using GraphPad Prism.

Experiment [2] concerns the target T2, human NHE-3 (Homo sapiens, UniProt P48764).
T2 construct: expressed in transfected cells; host or cells: Opossum kidney (OK) cells (ATCC), transfected by electroporation
T2 sequence (P48764 26-834): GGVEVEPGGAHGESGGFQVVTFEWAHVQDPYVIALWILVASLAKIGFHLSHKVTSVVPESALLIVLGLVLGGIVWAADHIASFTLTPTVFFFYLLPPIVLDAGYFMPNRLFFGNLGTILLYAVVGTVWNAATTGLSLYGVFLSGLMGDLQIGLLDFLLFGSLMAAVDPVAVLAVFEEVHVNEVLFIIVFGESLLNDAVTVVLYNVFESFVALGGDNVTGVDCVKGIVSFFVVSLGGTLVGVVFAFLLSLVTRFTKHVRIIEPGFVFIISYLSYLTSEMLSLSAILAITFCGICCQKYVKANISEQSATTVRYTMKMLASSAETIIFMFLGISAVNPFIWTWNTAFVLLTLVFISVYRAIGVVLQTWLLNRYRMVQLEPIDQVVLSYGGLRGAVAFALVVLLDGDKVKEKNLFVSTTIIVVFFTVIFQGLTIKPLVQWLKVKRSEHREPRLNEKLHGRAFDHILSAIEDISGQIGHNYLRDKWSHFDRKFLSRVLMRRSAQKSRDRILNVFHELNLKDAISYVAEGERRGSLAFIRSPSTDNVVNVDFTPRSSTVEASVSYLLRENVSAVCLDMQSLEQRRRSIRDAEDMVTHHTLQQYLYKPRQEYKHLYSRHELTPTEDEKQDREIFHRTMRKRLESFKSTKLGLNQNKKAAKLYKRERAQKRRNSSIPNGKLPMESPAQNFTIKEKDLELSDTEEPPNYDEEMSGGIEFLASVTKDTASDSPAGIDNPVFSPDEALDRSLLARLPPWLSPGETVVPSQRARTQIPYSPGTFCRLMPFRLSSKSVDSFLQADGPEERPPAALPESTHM
Briefly: Cell-based assay of NHE-3 activity (human NHE3 inhibition assay). The settings on record: OK cells with human NHE-3 gene, BCECF pH dye, 0-30 μM test compound; for IC50: read-out: Human NHE3 pIC50 (converted). The protocol: as §1

Experiment [3] has as its target T1, Rat NHE-3. The experiment in a line: Cell-based assay of NHE-3 activity (persistent inhibition, after washout). The settings on record: OK cells with rat NHE-3 gene, 60 min incubation, recovery initiated 40 min after compound washout; for IC50: read-out: Rat NHE3 pIC50 (persistent) (converted). As for the experimental part: The ability of compounds to inhibit Rat NHE-3-mediated Na^+-dependent H^+ antiport after application and washout was measured using a modification of the pH sensitive dye method described above in Example 74. Opossum kidney (OK) cells were obtained from the ATCC and propagated per their instructions. The rat NHE-3 gene was introduced into OK cells via electroporation, and cells were seeded into 96 well plates and grown overnight. Medium was aspirated from the wells, cells were washed twice with NaCl-HEPES buffer (100 mM NaCl, 50 mM HEPES, 10 mM glucose, 5 mM KCl, 2 mM CaCl2, 1 mM MgCl2, pH 7.4), then overlayed with NaCl-HEPES buffer containing 0-30 μM test compound. After a 60 min incubation, the test drug containing buffer was aspirated from the cells, cells were washed twice with NaCl-HEPES buffer without drug, then incubated for 30 min at room temperature with NH4Cl-HEPES buffer (20 mM NH4Cl, 80 mM NaCl, 50 mM HEPES, 5 mM KCl, 2 mM CaCl2, 1 mM MgCl2, pH 7.4) containing 5 μM BCECF-AM. Cells were washed twice with ammonium free, Na^+-free HEPES (100 mM choline, 50 mM HEPES, 10 mM glucose, 5 mM KCl, 2 mM CaCl2, 1 mM MgCl2, pH 7.4) and incubated in the same buffer for 10 minutes at room temperature to lower intracellular pH. […] Initial rates were plotted as the average 2 or more replicates, and pIC50 values were estimated using GraphPad Prism.

T1 sequence (P26433 29-831): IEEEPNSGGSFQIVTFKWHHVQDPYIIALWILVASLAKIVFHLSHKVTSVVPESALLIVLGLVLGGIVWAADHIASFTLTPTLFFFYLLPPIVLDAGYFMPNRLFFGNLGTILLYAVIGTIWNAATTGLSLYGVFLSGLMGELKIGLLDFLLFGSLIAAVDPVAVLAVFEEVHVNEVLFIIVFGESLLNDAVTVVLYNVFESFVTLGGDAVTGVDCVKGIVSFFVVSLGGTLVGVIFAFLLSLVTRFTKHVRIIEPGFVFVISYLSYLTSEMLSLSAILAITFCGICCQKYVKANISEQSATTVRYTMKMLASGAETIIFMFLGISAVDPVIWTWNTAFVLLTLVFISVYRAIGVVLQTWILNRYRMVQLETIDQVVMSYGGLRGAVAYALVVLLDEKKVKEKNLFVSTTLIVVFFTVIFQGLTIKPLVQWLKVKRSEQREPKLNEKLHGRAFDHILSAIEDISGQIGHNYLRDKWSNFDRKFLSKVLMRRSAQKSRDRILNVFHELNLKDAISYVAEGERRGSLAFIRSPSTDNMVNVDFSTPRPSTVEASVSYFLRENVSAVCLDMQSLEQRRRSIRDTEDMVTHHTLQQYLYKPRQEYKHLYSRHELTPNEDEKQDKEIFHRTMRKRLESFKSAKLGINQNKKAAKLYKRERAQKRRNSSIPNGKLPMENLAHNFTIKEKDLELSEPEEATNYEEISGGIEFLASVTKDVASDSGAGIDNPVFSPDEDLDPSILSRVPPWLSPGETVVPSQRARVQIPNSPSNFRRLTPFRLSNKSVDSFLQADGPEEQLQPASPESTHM

For `CN1Cc2c(Cl)cc(Cl)cc2[C@H](c2cccc(S(=O)(=O)NCCOCCOCCOCCn3cc(CN(Cc4cn(CCOCCOCCOCCNS(=O)(=O)c5cccc([C@@H]6CN(C)Cc7c(Cl)cc(Cl)cc76)c5)nn4)Cc4cn(CCOCCOCCOCCNS(=O)(=O)c5cccc([C@@H]6CN(C)Cc7c(Cl)cc(Cl)cc76)c5)nn4)nn3)c2)C1` [Example 18, (S,S)—N,N′,N″-(2,2′,2″-(2,2′,2″-(2,2′,2″-(2,2′,2″-(4,4′,4″-nitrilotris(methylene)tris(1H-1,2,3-triazole-4,1-diyl))tris(ethane-2,1-diyl))tris(oxy)tris(ethane-2,1-diyl))tris(oxy)tris(ethane-2,1-diyl))tris(oxy)tris(ethane-2,1-diyl))tris(3-((S)-6,8-dichloro-2-methyl-1,2,3,4-tetrahydroisoquinolin-4-yl)benzenesulfonamide)], the IC50 was 100 to 10000 nM in experiment [1], 100 to 10000 nM in experiment [2] and over 10000 nM in experiment [3].

Regarding `CN1Cc2c(Cl)cc(Cl)cc2[C@H](c2cccc(S(=O)(=O)NCCOCCOCCOCCNC(=O)CCC(CCC(=O)NCCOCCOCCOCCNS(=O)(=O)c3cccc([C@@H]4CN(C)Cc5c(Cl)cc(Cl)cc54)c3)(CCC(=O)NCCOCCOCCOCCNS(=O)(=O)c3cccc([C@@H]4CN(C)Cc5c(Cl)cc(Cl)cc54)c3)NCc3ccc(-c4ccc(Cl)cc4)cc3)c2)C1` [Example 19, 4-((4′-chlorobiphenyl-4-yl)methylamino)-4-(1-(3-((S)-6,8-dichloro-2-methyl-1,2,3,4-tetrahydroisoquinolin-4-yl)phenylsulfonamido)-13-oxo-3,6,9-trioxa-12-azapentadecan-15-yl)-N^1,N^7-bis(2-(2-(2-(2-(3-((S)-6,8-dichloro-2-methyl-1,2,3,4-tetrahydroisoquinolin-4-yl)phenylsulfonamido)ethoxy)ethoxy)ethoxy)ethyl)heptanediamide], the IC50 was over 10000 nM in experiment [1], over 10000 nM in experiment [2] and under 100 nM in experiment [3].

For the molecule `CCCCCCCCOc1ccc(CNC(CCC(=O)NCCOCCOCCOCCNS(=O)(=O)c2cccc([C@@H]3CN(C)Cc4c(Cl)cc(Cl)cc43)c2)(CCC(=O)NCCOCCOCCOCCNS(=O)(=O)c2cccc([C@@H]3CN(C)Cc4c(Cl)cc(Cl)cc43)c2)CCC(=O)NCCOCCOCCOCCNS(=O)(=O)c2cccc([C@@H]3CN(C)Cc4c(Cl)cc(Cl)cc43)c2)cc1` [Example 20, 4-(1-(3-((S)-6,8-dichloro-2-methyl-1,2,3,4-tetrahydroisoquinolin-4-yl)phenylsulfonamido)-13-oxo-3,6,9-trioxa-12-azapentadecan-15-yl)-N^1,N^7-bis(2-(2-(2-(2-(3-((S)-6,8-dichloro-2-methyl-1,2,3,4-tetrahydroisoquinolin-4-yl)phenylsulfonamido)ethoxy)ethoxy)ethoxy)ethyl)-4-(4-(octyloxy)benzylamino)heptanediamide], the values for the IC50 in experiment [1], in experiment [2] and in experiment [3] were 100 to 10000 nM, under 100 nM and under 100 nM, respectively.

Consider `CCCCCCCCCCC(=O)NC(CCC(=O)NCCOCCOCCNS(=O)(=O)c1cccc([C@@H]2CN(C)Cc3c(Cl)cc(Cl)cc32)c1)(CCC(=O)NCCOCCOCCNS(=O)(=O)c1cccc([C@@H]2CN(C)Cc3c(Cl)cc(Cl)cc32)c1)CCC(=O)NCCOCCOCCNS(=O)(=O)c1cccc([C@@H]2CN(C)Cc3c(Cl)cc(Cl)cc32)c1` [Example 22], for which the “Rat NHE3 pIC50 (prompt)” value in experiment [1] is “A (A NHE3 pIC50 < 5)”. In addition, the “Human NHE3 pIC50” value in experiment [2] is given as “B (B NHE3 pIC50 5-7)”. Further, the “Rat NHE3 pIC50 (persistent)” value in experiment [3] is recorded as “B (B NHE3 pIC50 5-7)”.

Regarding `CCCCCCCCOc1ccc(CNC(CCC(=O)NCCOCCOCCNS(=O)(=O)c2cccc([C@@H]3CN(C)Cc4c(Cl)cc(Cl)cc43)c2)(CCC(=O)NCCOCCOCCNS(=O)(=O)c2cccc([C@@H]3CN(C)Cc4c(Cl)cc(Cl)cc43)c2)CCC(=O)NCCOCCOCCNS(=O)(=O)c2cccc([C@@H]3CN(C)Cc4c(Cl)cc(Cl)cc43)c2)cc1` [Example 23], in experiment [1], the “Rat NHE3 pIC50 (prompt)” value was “B (B NHE3 pIC50 5-7)”. For the same molecule, in experiment [2], the “Human NHE3 pIC50” value is given as “C (C NHE3 pIC50 > 7)”. In experiment [3], the “Rat NHE3 pIC50 (persistent)” value is “B (B NHE3 pIC50 5-7)”.

On to `CN1Cc2c(Cl)cc(Cl)cc2[C@H](c2cccc(S(=O)(=O)NCCOCCOCCNC(=O)CCC(CCC(=O)NCCOCCOCCNS(=O)(=O)c3cccc([C@@H]4CN(C)Cc5c(Cl)cc(Cl)cc54)c3)(CCC(=O)NCCOCCOCCNS(=O)(=O)c3cccc([C@@H]4CN(C)Cc5c(Cl)cc(Cl)cc54)c3)NCc3ccc(-c4ccc(Cl)cc4)cc3)c2)C1` [Example 24], for which the “Rat NHE3 pIC50 (prompt)” value in experiment [1] is “A (A NHE3 pIC50 < 5)”. For the same molecule, the “Human NHE3 pIC50” value in experiment [2] is on record as “A (A NHE3 pIC50 < 5)”. Moreover, the “Rat NHE3 pIC50 (persistent)” value in experiment [3] is given as “B (B NHE3 pIC50 5-7)”.

`CN1Cc2c(Cl)cc(Cl)cc2[C@H](c2cccc(S(=O)(=O)NCCOCCOCCOCCNC(=O)CN(CCOCCOCCN(CC(=O)NCCOCCOCCOCCNS(=O)(=O)c3cccc([C@@H]4CN(C)Cc5c(Cl)cc(Cl)cc54)c3)CC(=O)NCCOCCOCCOCCNS(=O)(=O)c3cccc([C@@H]4CN(C)Cc5c(Cl)cc(Cl)cc54)c3)CC(=O)NCCOCCOCCOCCNS(=O)(=O)c3cccc([C@@H]4CN(C)Cc5c(Cl)cc(Cl)cc54)c3)c2)C1` [Example 42, 3,12-bis(14-(3-((S)-6,8-dichloro-2-methyl-1,2,3,4-tetrahydroisoquinolin-4-yl)phenylsulfonamido)-2-oxo-6,9,12-trioxa-3-azatetradecyl)-N^1,N^14-bis(2-(2-(2-(2-(3-((S)-6,8-dichloro-2-methyl-1,2,3,4-tetrahydroisoquinolin-4-yl)phenylsulfonamido)ethoxy)ethoxy)ethoxy)ethyl)-6,9-dioxa-3,12-diazatetradecane-1,14-diamide]: the IC50 in experiment [1], in experiment [2] and in experiment [3] was under 100 nM in each case.
